Data taken from patent US12410171B2, “Tropomyosin receptor kinase (TRK) degradation compounds and methods of use” (Cullgen (Shanghai), Inc., priority 2020, dated 2025).

What was measured:
TPM3-TRKA fusion protein = molecular target: T1, TPM3-TRKA fusion protein (Homo sapiens, UniProt P04629); experiment: TPM3-TRKA fusion protein levels in KM12 cells (Western blot); assay type: cell-based; settings: for percent degradation of TPM3-TRKA protein at 0.01 µM: 16 h, TPM3-TRKA degradation in KM12 cells at 10 nM compound, category of percentage degradation, read-out: Degradation (at 10 nM); for TRKA protein levels: dose range (FIG. 8); for relative effectiveness at degrading TRKA: 0.4-30 nM, 8-16 hours, comparison of enantiomers (FIG. 28A-28B)
T1 construct: The resulted chimeric proteins always retain the kinase domain of TRK proteins; TPM3 (fusion partner, N-terminal part of tropomyosin alpha-3, P06753); endogenous in cells; host or cells: KM12 colon cancer cells; the other entry of the earlier key: TPM3 (P06753, Tropomyosin alpha-3 chain)
How it was run: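 KM12 colon cancer cells were treated with DMSO or compounds at 0.1–100 nM, 0.4–30 nM or other stated concentrations for 4, 8–16 or 16 h. RIPA lysates were BCA-normalized and resolved by SDS-PAGE. TPM3-TRKA was detected by chemiluminescent Western blot, with bands quantified by densitometry.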

[1] = Mouse pharmacokinetic (PK) studies, plasma concentrations; assay type: in vivo, mice; settings: for bioavailability: mouse, plasma, oral, male ICR mice, single dose 10 mg/kg orally or 1 mg/kg intravenously (FIG. 23A)
Method: A single […] intraperitoneal injection of compound TR-123 was evaluated. Plasma concentrations of TR-123 reported at each of the 6 time points (30 min, 1 h, […], 4 h, 8 h, and 12 h post compound administration) are the average values from 3 test animals.
A single 2 mg/kg intravenous injection and 20 mg/kg oral gavage of TR-198 were evaluated in mice. Plasma concentrations of TR-198 reported at each of the 6 time points (5 min, 30 min, 2 h, 4 h, 8 h, and 12 h post compound administration via IV, 30 min, 1 h, 2 h, 4 h, 8 h, and 12 h post compound administration via p.o.) are the average values from 3 test animals.
Plasma concentrations of TR-231 and TR-275 were determined following a single dose of 10 mg/kg orally or 1 mg/kg intravenously in male ICR mice (FIG. 23A). Plasma concentrations of TR-231 or TR-275 are examined at indicated different time points post compound administration. The reported values are the average values from 3 test animals.
Standard PK studies were conducted using male Swiss Albino mice by Sai Life Sciences or using male ICR mice by Cullgen. Plasma exposures of TR-123 (10 mg/kg, intraperitoneal injection), TR-198 (20 mg/kg, oral gavage, or 2 mg/kg, intravenous injection), TR-231 and TR-275 (10 mg/kg, oral gavage, or 1 mg/kg, intravenous injection) were determined. Plasma concentrations were reported at indicated time points as the average values derived from three experimental animals. Error bars represent standard deviations.

wildtype TRKA protein = molecular target: T2, wildtype TRKA protein (Homo sapiens, UniProt P04629); experiment: Wildtype TRKA protein levels in HEL erythroleukemia cells (Western blot); assay type: cell-based; settings: for TRKA protein levels: dose range (FIG. 8)
T2 construct: wildtype TRKA protein expressed by HEL cells; endogenous in cells; host or cells: HEL erythroleukemia cells
Method: KM12 or HEL cells were treated with a dose range of compound TR-123 or TR-123-negative. The latter lost binding to cereblon (CRBN) due to a chemical modification.
KM12 or HEL cells were treated with a single dose of compound TR-123 or combination with MG-132, Bortezomib, MLN4924 or Pomalidomide.
HEL cells were treated with heterobifunctional compounds at 10 nM or 100 nM for 16 hours.
KM12, H358, HEL, SU-DHL-1 and other cells were cultured at 37° C. with 5% CO2 in RPMI 1640 Medium supplemented with 10% fetal bovine serum. Cells were authenticated using the short tandem repeat (STR) assays. Mycoplasma test results were negative. Stable cell lines were established by lentivirus transduction, selected and maintained in medium containing 1 μg/mL puromycin (Beyotime Biotechnology).
Cultured cells were washed with cold PBS once and lysed in cold RIPA buffer supplemented with protease inhibitors and phosphatase inhibitors (Beyotime Biotechnology). The solutions were then incubated at 4° C. for 30 minutes with gentle agitation to fully lyse cells. For tumor tissues, tumors were cut into small pieces, milled with cold RIPA buffer using a mechanical homogenizer and lysed for 1 hour at 4° C. Cell lysates were centrifuged at 13,000 rpm for 10 minutes at 4° C. and pellets were discarded. Total protein concentrations in the lysates were determined by BCA assays (Beyotime Biotechnology). Cell lysates were mixed with Laemmli loading buffer to 1× and heated at 99° C. for 5 min. Proteins were resolved on SDS-PAGE and visualized by chemiluminescence. Images were taken by a ChemiDoc MP Imaging system (Bio-Rad). Protein bands were quantitated using the software provided by Bio-Rad.

[2] = test system: KM12 subcutaneous xenograft tumors; experiment: KM12 subcutaneous xenograft tumor growth; assay type: in vivo, Athymic nude mice; settings: 10-20 mg/kg qd or bid via oral gavage (FIG. 15A-15B)
Method: Athymic nude mice bearing KM12 subcutaneous xenograft tumors at the right flank were intraperitoneally treated with vehicle or 25 mg/kg CPD-060 once per day (qd), twice per day (bid), or once every two days (q2d). Tumor volumes were assessed every two days and expressed as length×width×width/2. Body weights of experimental mice were also measured to assess the toxicity of compounds.
Athymic nude mice bearing KM12 subcutaneous xenograft tumors at the right flank were treated with vehicle, 10-20 mg/kg TR-181 or TR-198 once per day (qd), or twice per day (bid) via oral gavage. Tumor volumes were assessed every two days and expressed as length×width×width/2. Body weights of experimental mice were also measured to assess the toxicity of compounds.
Mice bearing KM12 xenograft tumors were treated with vehicle, TR-231 or TR-275 orally at 40 mg/kg, twice per day for 14 days. Tumor sizes were measured every two days and presented as volume=(length×width×width)/2. […]
All animal experiments were performed under protocols approved by the Institutional Animal Care and Use Committee (IACUC) of Cullgen. […] Tumor volumes were calculated as […]. For tumor growth assays, tumor sizes and body weight of mice were measured every 2 days. For pharmacodynamic studies, the levels of TPM3-TPKA in xenograft tumors was determined following a single dose of drug administration. […]

KM12 cells = experiment: KM12 cell viability (CellTiter-Glo); assay type: cell-based; settings: Homo sapiens, 72 h; KM12 cell viability, CellTiter-Glo, three days treatment; read-out: IC50
How it was run: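 KM12 cells seeded at 5000 per well in RPMI 1640 + 10% FBS and exposed 3 days to serial dilutions (11-point 3-fold, 8-point 3-fold from 1000 nM, or 12-point 2-fold). Viability by CellTiter-Glo; IC50 from least-squares nonlinear regression.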

T1 sequence (P04629 with tags, fused parts or gaps): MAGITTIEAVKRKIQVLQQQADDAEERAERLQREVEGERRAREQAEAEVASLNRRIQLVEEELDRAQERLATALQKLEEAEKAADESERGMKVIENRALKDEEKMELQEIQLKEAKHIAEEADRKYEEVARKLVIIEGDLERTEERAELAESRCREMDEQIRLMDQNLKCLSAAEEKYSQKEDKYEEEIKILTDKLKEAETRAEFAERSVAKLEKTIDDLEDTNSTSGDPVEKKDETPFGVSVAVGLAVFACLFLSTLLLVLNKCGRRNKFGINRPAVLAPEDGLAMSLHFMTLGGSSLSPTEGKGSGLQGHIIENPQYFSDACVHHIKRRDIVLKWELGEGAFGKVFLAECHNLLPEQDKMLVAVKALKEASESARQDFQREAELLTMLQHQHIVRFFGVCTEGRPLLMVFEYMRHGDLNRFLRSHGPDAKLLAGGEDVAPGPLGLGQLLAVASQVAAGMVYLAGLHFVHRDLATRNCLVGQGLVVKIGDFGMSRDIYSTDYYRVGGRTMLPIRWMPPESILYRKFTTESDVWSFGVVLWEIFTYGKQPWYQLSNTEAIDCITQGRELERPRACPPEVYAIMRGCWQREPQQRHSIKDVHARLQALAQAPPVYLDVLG
T2 sequence (P04629 33-796): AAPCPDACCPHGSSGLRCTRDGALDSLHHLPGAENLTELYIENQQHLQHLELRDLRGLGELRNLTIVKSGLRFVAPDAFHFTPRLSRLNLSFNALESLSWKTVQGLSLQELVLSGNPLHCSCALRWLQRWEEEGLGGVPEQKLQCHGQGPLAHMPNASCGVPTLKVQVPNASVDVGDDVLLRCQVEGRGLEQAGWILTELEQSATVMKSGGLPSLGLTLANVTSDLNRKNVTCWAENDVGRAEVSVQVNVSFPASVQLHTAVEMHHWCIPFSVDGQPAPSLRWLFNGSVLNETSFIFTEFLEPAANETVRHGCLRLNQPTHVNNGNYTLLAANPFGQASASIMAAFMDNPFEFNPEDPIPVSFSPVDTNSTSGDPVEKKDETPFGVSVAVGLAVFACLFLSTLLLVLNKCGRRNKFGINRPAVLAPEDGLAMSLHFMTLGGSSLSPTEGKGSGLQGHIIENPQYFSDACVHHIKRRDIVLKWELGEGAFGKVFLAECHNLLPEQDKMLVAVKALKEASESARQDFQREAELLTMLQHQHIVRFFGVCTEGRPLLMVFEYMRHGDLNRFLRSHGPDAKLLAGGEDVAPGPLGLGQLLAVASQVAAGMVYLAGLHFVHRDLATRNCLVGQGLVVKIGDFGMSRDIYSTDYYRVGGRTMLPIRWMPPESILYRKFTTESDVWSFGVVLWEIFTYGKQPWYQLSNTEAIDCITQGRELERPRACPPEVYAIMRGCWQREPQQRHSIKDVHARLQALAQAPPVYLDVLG

percent degradation of TPM3-TRKA protein at 0.01 µM (TPM3-TRKA fusion protein) [%] | Compound | IC50 (KM12 cells) [nM] | also measured
> 80 | O=C1CCC(N2C(=O)c3ccc(NCC(=O)N4CCN(c5cccc(-c6cnc7ccc(N8CCC[C@@H]8c8cccc(F)c8)nn67)n5)CC4)cc3C2=O)C(=O)N1 (stereo partly drawn) [TR-123, 2-(2,6-dioxopiperidin-3-yl)-5-((2-(4-(6-(6-((R)-2-(3-fluorophenyl)pyrrolidin-1-yl)imidazo[1,2-b]pyridazin-3-yl)pyridin-2-yl)piperazin-1-yl)-2-oxoethyl)amino) isoindoline-1,3-dione] | – | TRKA protein levels (TPM3-TRKA fusion protein; KM12 cells): reduced TRKA protein levels in a concentration-dependent manner; TRKA degradation in combination with MG-132, Bortezomib, MLN4924 or Pomalidomide (TPM3-TRKA fusion protein; KM12 cells, single dose (FIG. 9)): compromised; plasma exposure ([1]; single 20 mg/kg intraperitoneal injection, over 12 hours, average of 3 animals (FIG. 11)): good plasma exposure; TRKA protein levels (wildtype TRKA protein): reduced TRKA protein levels in a concentration-dependent manner; TRKA degradation in combination with MG-132, Bortezomib, MLN4924 or Pomalidomide (wildtype TRKA protein; single dose (FIG. 9)): compromised
– | CN1C(=O)CCC(N2C(=O)c3ccc(NCC(=O)N4CCN(c5cccc(-c6cnc7ccc(N8CCC[C@@H]8c8cccc(F)c8)nn67)n5)CC4)cc3C2=O)C1=O (stereo partly drawn) [TR-123-negative, 5-((2-(4-(6-(6-((R)-2-(3-fluorophenyl)pyrrolidin-1-yl)imidazo[1,2-b]pyridazin-3-yl)pyridin-2-yl)piperazin-1-yl)-2-oxoethyl)amino)-2-(1-methyl-2,6-dioxopiperidin-3-yl)isoindoline-1,3-dione] | – | TRKA protein levels (TPM3-TRKA fusion protein; KM12 cells): had none or less effects on TRKA protein levels; TRKA protein levels (wildtype TRKA protein): had none or less effects on TRKA protein levels
> 80 | O=C1CCC(N2C(=O)c3ccc(NCCN4CCN(c5cccc(-c6cnc7ccc(N8CCC[C@@H]8c8cccc(F)c8)nn67)n5)CC4)cc3C2=O)C(=O)N1 (stereo partly drawn) [TR-181, 2-(2,6-dioxopiperidin-3-yl)-5-((2-(4-(6-(6-((R)-2˜ (3-fluorophenyl)pyrrolidin-1-yl)imidazo[1,2-b]pyridazin-3-yl)pyridin-2-yl)piperazin-1-yl)ethyl)amino) isoindoline-1,3-dione] | 2.9 | in vivo anti-tumor activity (tumor volume) [2]: significant in vivo anti-tumor activity
> 80 | O=C1CCC(N2C(=O)c3ccc(N4CC(CN5CCN(c6cccc(-c7cnc8ccc(N9CCC[C@@H]9c9cccc(F)c9)nn78)n6)CC5)C4)cc3C2=O)C(=O)N1 (stereo partly drawn) [TR-198, 2-(2,6-dioxopiperidin-3-yl)-5-(3-((4-(6-(6-((R)-2-(3-fluorophenyl)pyrrolidin-1-yl)imidazo[1,2-b]pyridazin-3-yl)pyridin-2-yl)piperazin-1-yl)methyl)azetidin-1-yl)isoindoline-1,3-dione] | – | in vivo anti-tumor activity (tumor volume) [2]: significant in vivo anti-tumor activity
> 80 | O=C1CCC(N2C(=O)c3ccc(N4CC(CN5CCN(c6ccc(C(=O)Nc7n[nH]c8ccc(Cc9cc(F)cc(F)c9)cc78)c(NC7CCOCC7)c6)CC5)C4)cc3C2=O)C(=O)N1 (stereo not drawn) [TR-231] | 3 | bioavailability [1]: ~48%
50 to 80 | O=C1CCC(N2C(=O)c3ccc(N4CC(N5CCN(c6ccc(C(=O)Nc7n[nH]c8ccc(Cc9cc(F)cc(F)c9)cc78)c(NC7CCOCC7)c6)CC5)C4)cc3C2=O)C(=O)N1 (stereo not drawn) [TR-275, N-(5-(3,5-difluorobenzyl)-1H-indazol-3-yl)-4-(4-(1-(2-(2,6-dioxopiperidin-3-yl)-1,3-dioxoisoindolin-5-yl)azetidin-3-yl)piperazin-1-yl)-2-((tetrahydro-2H-pyran-4-yl)amino)benzamide] | 8.9 | bioavailability [1]: ~27%
> 80 | O=C1CC[C@@H](N2C(=O)c3ccc(N4CC(CN5CCN(c6ccc(C(=O)Nc7n[nH]c8ccc(Cc9cc(F)cc(F)c9)cc78)c(NC7CCOCC7)c6)CC5)C4)cc3C2=O)C(=O)N1 [TR-342, (R)—N-(5-(3,5-difluorobenzyl)-1H-indazol-3-yl)-4-(4-((1-(2-(2,6-dioxopiperidin-3-yl)-1,3-dioxoisoindolin-5-yl)azetidin-3-yl)methyl)piperazin-1-yl)-2-((tetrahydro-2H-pyran-4-yl)amino)benzamide] | 3 | relative effectiveness at degrading TRKA (TPM3-TRKA fusion protein; KM12 cells): more effective at degrading TRKA at lower concentrations than TR-342
> 80 | O=C1CC[C@H](N2C(=O)c3ccc(N4CC(N5CCN(c6ccc(C(=O)Nc7n[nH]c8ccc(Cc9cc(F)cc(F)c9)cc78)c(NC7CCOCC7)c6)CC5)C4)cc3C2=O)C(=O)N1 [TR-343, (S)—N-(5-(3,5-difluorobenzyl)-1H-indazol-3-yl)-4-(4-(1˜ (2-(2,6-dioxopiperidin-3-yl)-1,3-dioxoisoindolin-5-yl)azetidin-3-yl)piperazin-1-yl)-2-((tetrahydro-2H-pyran-4-yl)amino)benzamide] | 9 | relative effectiveness at degrading TRKA (TPM3-TRKA fusion protein; KM12 cells): more effective at degrading TRKA at lower concentrations than TR-344
> 80 | O=C1CC[C@@H](N2C(=O)c3ccc(N4CC(N5CCN(c6ccc(C(=O)Nc7n[nH]c8ccc(Cc9cc(F)cc(F)c9)cc78)c(NC7CCOCC7)c6)CC5)C4)cc3C2=O)C(=O)N1 [TR-344, (R)—N—(S-(3,5-difluorobenzyl)-1H-indazol-3-yl)-4-(4-(1-(2-(2,6-dioxopiperidin-3-yl)-1,3-dioxoisoindolin-5-yl)azetidin-3-yl)piperazin-1-yl)-2-((tetrahydro-2H-pyran-4-yl)amino)benzamide] | 9 | –
